Test system: skin epidermis

Cocoyl Isethionate
Relative Skin Barrier Penetration Value: 40
